Legend:
Format in all cases: cell-based
[1] = test system: NCI-H226 mesothelioma cell line; assay: Mesothelioma cell line proliferation assay, NCI-H226; details: NCI-H226, 6 days with compound, cell viability by ATPlite
Method in brief: (§1)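 Cells were seeded at 1500 cells/well in RPMI 1640 with 10% FBS, left overnight, then exposed to DMSO-dissolved compounds in dose-response for 6 days at 37 °C, 5% CO2. Viability was measured by ATPlite luminescence, converted to percent inhibition, and used to derive EC50.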

[2] = test system: NCI-H2052 mesothelioma cell line; assay: Mesothelioma cell line proliferation assay, NCI-H2052; details: NCI-H2052, 6 days with compound, cell viability by ATPlite
Method in brief: as §1

[3] = test system: YAP/TAZ-TEAD transcription; assay: Reporter gene assay for measuring the inhibition of YAP/TAZ-TEAD transcription (TEAD-responsive element luciferase reporter in Hek293T cells); details: Hek293T cells transiently transfected with TEAD-responsive element luciferase reporter, 24 hours incubation
Method in brief: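 Hek293T cells transiently transfected with TEAD-responsive luciferase reporter, exposed to compound for 24 h at 37° C/5% CO2, then read by luminescence. Percent inhibition normalized to vehicle (0%) and positive control inhibitor (100%); EC50 reported as activity ranges.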

Measured: EC50

C=CC(=O)NCC1CN(c2ccc(C(F)(F)F)cn2)c2ccnn2C1 (single isomer, unassigned) [Cpd. No. 008-En2, (R)- or (S)-N-((4-(5-(trifluoromethyl)pyridin-2-yl)-4,5,6,7-tetrahydropyrazolo[1,5-a]pyrimidin-6-yl)methyl)acrylamide]
< 1000 nM: all assays above
